Converted amounts (≈) assume the structure as drawn. Counter-ions that a name gives are not always drawn. Like-named read-outs stand apart in the source and are kept apart here.
How the values were obtained:
[1] = very low aqueous solubility in GI fluids, high permeability; cited from earlier work
MDA-MB-231 cells = assay: In vitro cytotoxicity, sulforhodamine B assay; assay type: cell-based; settings: Homo sapiens, 48 h, SRB assay, n = 3
Experimental: The cytotoxicity of MSNM@SFN against MDA-MB-231 cells was measured by sulforhodamine B assay (SRB assay). Briefly, MDA-MB-231 cells (1 × 10^4 cells per well) were seeded in a 96-well plate and grown in medium for 24 h. Then, the cells were treated with cell culture medium containing the different amounts of MSNM@SFN for 48 h at 37 °C. The cell viability was determined by SRB assay. Absorbance was measured at 540 nm using a 96-well plate reader (model 680; Bio-Rad Laboratories, Hercules, CA). The survival percentages were calculated using the formula: survival % = (A540 nm for the treated cells/A540 nm for the control cells) × 100%, where A540 nm is the absorbance value. Each assay was carried out in triplicate. Finally, dose–effect curves were constructed and IC50 values were calculated.

[2] = cited from earlier work
[3] = Solubility in distilled water (shake-flask, HPLC); assay type: physicochemical; settings: thermodynamic from solid, 37 °C

For `CNC(=O)c1cc(Oc2ccc(NC(=O)Nc3ccc(Cl)c(C(F)(F)F)c3)cc2)ccn1` [SFN, Sorafenib tosylate], the BCS class [1] is listed as “BCS II”, the IC50 (MDA-MB-231 cells) is listed as 5.84 ± 0.17 µM and the LogP [2] is listed as 3.8. For the same molecule, the solubility at 48 h ([3]; 48 h, read-out: Solubility of SFN) was under 0.1 µg/mL.

In the case of `CCc1c2c(nc3ccc(O)cc13)-c1cc3c(c(=O)n1C2)COC(=O)[C@]3(O)CC` [SN38, 7-ethyl-10-hydroxycamptothecin], the solubility at 48 h ([3]; water, read-out: Solubility of SN38) is reported as under 0.01 µg/mL.

With `CC(=O)O[C@H]1C(=O)[C@@]2(C)[C@H]([C@H](OC(=O)c3ccccc3)[C@]3(O)C[C@H](OC(=O)[C@H](O)[C@@H](NC(=O)c4ccccc4)c4ccccc4)C(C)=C1C3(C)C)[C@]1(OC(C)=O)CO[C@@H]1C[C@@H]2O` [PTX, paclitaxel] the solubility at 48 h ([3]; water, read-out: Solubility of PTX) was 0.17 ± 0.02 µg/mL (≈ 0.199 µM).

Reference: paper PMC8241045, “Improving anti-tumor activity of sorafenib tosylate by lipid- and polymer-coated nanomatrix” (Drug Delivery, 2017)
